What follows are substances tested on G3BP1 NFT2. Settings: library DMS-BM; bait G3BP1 NFT2; prey CAPRIN1; AQMQGPYNFIQDSM(averaged): mean of the two overlapping peptides over the shared positions.
Type: binding, human

Substance	DMS position-specific score (PSSM value) per amino-acid substitution, averaged
AQMQGPYNFIQDSM(averaged) Q11I (AQMQGPYNFIIDSM)	0
AQMQGPYNFIQDSM(averaged) A1Y (YQMQGPYNFIQDSM)	0.1391
AQMQGPYNFIQDSM(averaged) Q4L (AQMLGPYNFIQDSM)	0.003961
AQMQGPYNFIQDSM(averaged) Q2I (AIMQGPYNFIQDSM)	0.05266
AQMQGPYNFIQDSM(averaged) D12W (AQMQGPYNFIQWSM)	0
AQMQGPYNFIQDSM(averaged) N8W (AQMQGPYWFIQDSM)	0.1126
AQMQGPYNFIQDSM(averaged) P6Q (AQMQGQYNFIQDSM)	0.00431
AQMQGPYNFIQDSM(averaged) F9D (AQMQGPYNDIQDSM)	0.037
AQMQGPYNFIQDSM(averaged) Q11T (AQMQGPYNFITDSM)	0.1081
AQMQGPYNFIQDSM(averaged) N8M (AQMQGPYMFIQDSM)	0.01948
AQMQGPYNFIQDSM(averaged) D12D	0.268
AQMQGPYNFIQDSM(averaged) M14T (AQMQGPYNFIQDST)	0.005834
AQMQGPYNFIQDSM(averaged) N8Q (AQMQGPYQFIQDSM)	0.04567
AQMQGPYNFIQDSM(averaged) S13Q (AQMQGPYNFIQDQM)	0
AQMQGPYNFIQDSM(averaged) G5V (AQMQVPYNFIQDSM)	0.008337
AQMQGPYNFIQDSM(averaged) S13H (AQMQGPYNFIQDHM)	0
AQMQGPYNFIQDSM(averaged) M14L (AQMQGPYNFIQDSL)	0.006578
AQMQGPYNFIQDSM(averaged) Q2Q	0.0522
AQMQGPYNFIQDSM(averaged) S13S	0.5152
AQMQGPYNFIQDSM(averaged) I10V (AQMQGPYNFVQDSM)	0.004849
AQMQGPYNFIQDSM(averaged) M3R (AQRQGPYNFIQDSM)	0.003692
AQMQGPYNFIQDSM(averaged) Q4Y (AQMYGPYNFIQDSM)	0.002959
AQMQGPYNFIQDSM(averaged) P6H (AQMQGHYNFIQDSM)	0.008056
AQMQGPYNFIQDSM(averaged) G5A (AQMQAPYNFIQDSM)	0.003112

Substance	DMS position-specific score (PSSM value) per amino-acid substitution, averaged
AQMQGPYNFIQDSM(averaged) D12P (AQMQGPYNFIQPSM)	0.216
AQMQGPYNFIQDSM(averaged) Q11A (AQMQGPYNFIADSM)	0.001301
AQMQGPYNFIQDSM(averaged) Q2N (ANMQGPYNFIQDSM)	0.006268
AQMQGPYNFIQDSM(averaged) Q11F (AQMQGPYNFIFDSM)	0.006502
AQMQGPYNFIQDSM(averaged) D12K (AQMQGPYNFIQKSM)	0.003093
AQMQGPYNFIQDSM(averaged) M3G (AQGQGPYNFIQDSM)	0.02919
AQMQGPYNFIQDSM(averaged) I10Y (AQMQGPYNFYQDSM)	0.003704
AQMQGPYNFIQDSM(averaged) S13V (AQMQGPYNFIQDVM)	0.1094
AQMQGPYNFIQDSM(averaged) F9Q (AQMQGPYNQIQDSM)	0.01043
AQMQGPYNFIQDSM(averaged) M14N (AQMQGPYNFIQDSN)	0.007055
AQMQGPYNFIQDSM(averaged) P6E (AQMQGEYNFIQDSM)	0.004474
AQMQGPYNFIQDSM(averaged) M3F (AQFQGPYNFIQDSM)	0.0581
AQMQGPYNFIQDSM(averaged) Q4T (AQMTGPYNFIQDSM)	0.0001371
AQMQGPYNFIQDSM(averaged) Q2V (AVMQGPYNFIQDSM)	0.04598
AQMQGPYNFIQDSM(averaged) I10L (AQMQGPYNFLQDSM)	0.1472
AQMQGPYNFIQDSM(averaged) I10N (AQMQGPYNFNQDSM)	0.0004895
AQMQGPYNFIQDSM(averaged) Y7N (AQMQGPNNFIQDSM)	0
AQMQGPYNFIQDSM(averaged) Q11Q	0.3738
AQMQGPYNFIQDSM(averaged) Q11E (AQMQGPYNFIEDSM)	0
AQMQGPYNFIQDSM(averaged) M14V (AQMQGPYNFIQDSV)	0.02285
AQMQGPYNFIQDSM(averaged) Q4N (AQMNGPYNFIQDSM)	0.005313
AQMQGPYNFIQDSM(averaged) F9L (AQMQGPYNLIQDSM)	0.0005113
AQMQGPYNFIQDSM(averaged) Y7R (AQMQGPRNFIQDSM)	0
AQMQGPYNFIQDSM(averaged) Y7V (AQMQGPVNFIQDSM)	0.02381

Substance	DMS position-specific score (PSSM value) per amino-acid substitution, averaged
AQMQGPYNFIQDSM(averaged) Y7D (AQMQGPDNFIQDSM)	0
AQMQGPYNFIQDSM(averaged) D12A (AQMQGPYNFIQASM)	0.09226
AQMQGPYNFIQDSM(averaged) F9Y (AQMQGPYNYIQDSM)	0.002988
AQMQGPYNFIQDSM(averaged) M14Q (AQMQGPYNFIQDSQ)	0.06683
AQMQGPYNFIQDSM(averaged) Y7F (AQMQGPFNFIQDSM)	0.03551
AQMQGPYNFIQDSM(averaged) M14I (AQMQGPYNFIQDSI)	0.02696
AQMQGPYNFIQDSM(averaged) G5S (AQMQSPYNFIQDSM)	0.1168
AQMQGPYNFIQDSM(averaged) N8Y (AQMQGPYYFIQDSM)	0.0098
AQMQGPYNFIQDSM(averaged) P6M (AQMQGMYNFIQDSM)	0.05352
AQMQGPYNFIQDSM(averaged) Q2L (ALMQGPYNFIQDSM)	0.006039
AQMQGPYNFIQDSM(averaged) M14R (AQMQGPYNFIQDSR)	0.003652
AQMQGPYNFIQDSM(averaged) Q11S (AQMQGPYNFISDSM)	0.05986
AQMQGPYNFIQDSM(averaged) Q4D (AQMDGPYNFIQDSM)	0.3261
AQMQGPYNFIQDSM(averaged) Q4F (AQMFGPYNFIQDSM)	0.01567
AQMQGPYNFIQDSM(averaged) D12R (AQMQGPYNFIQRSM)	0.003499
AQMQGPYNFIQDSM(averaged) Q11P (AQMQGPYNFIPDSM)	0
AQMQGPYNFIQDSM(averaged) Q4A (AQMAGPYNFIQDSM)	0.0506
AQMQGPYNFIQDSM(averaged) S13Y (AQMQGPYNFIQDYM)	0.0135
AQMQGPYNFIQDSM(averaged) M3E (AQEQGPYNFIQDSM)	0.03003
AQMQGPYNFIQDSM(averaged) D12H (AQMQGPYNFIQHSM)	0.1155
AQMQGPYNFIQDSM(averaged) Q11R (AQMQGPYNFIRDSM)	0.004534
AQMQGPYNFIQDSM(averaged) M3H (AQHQGPYNFIQDSM)	0.02176
AQMQGPYNFIQDSM(averaged) Q2M (AMMQGPYNFIQDSM)	0.123
AQMQGPYNFIQDSM(averaged) Q2D (ADMQGPYNFIQDSM)	0.02749
